# Counter-ions that a name gives are not always drawn.
# Biological target: T1, HiBiT tagged PARP14 (Homo sapiens, UniProt Q460N5)
# T1 construct: engineered to contain a HiBiT tag on both alleles of the PARP14 gene; endogenous in cells; host or cells: Jurkat cells stably transfected with LgBiT (Promega), PARP14 locus edited by CRISPR/Cas9
# Assay: HiBiT assay for the degradation of PARP14 (HiBiT tagged PARP14 in LgBiT expressing Jurkat cells, 2 or 24 hours)
# Assay type: cell-based
# Settings: Assay B (Example B): HiBiT tagged PARP14 degradation in LgBiT expressing Jurkat cells, read-out: DC50
# Method: Jurkat cells stably transfected with LgBiT (Promega) were engineered to contain a HiBiT tag on both alleles of the PARP14 gene (Genbank Accession Number: NM_017554) via CRISPR/Cas9 editing. The HiBiT tag is an 11 amino acid tag created by Promega that associates with LgBiT protein to form the NanoLuc® tag on the C-terminus of PARP14. Clones were isolated and confirmed for the HiBiT tag via Sanger sequencing.
# Degradation of PARP14 protein was assessed by measuring the luminescence of the HiBiT tag associating with the LgBiT protein as a proxy for the PARP14 protein.
# Jurkat cells were diluted to 250,000 cells per mL and then added to assay plate (Corning 3574) using a Multidrop (Thermo Fisher) to add 20 μL per well of the 384 well plate, resulting in 5,000 cells per well. 20 nL of a dose response curve diluted in DMSO of each test compound was added to the cell plate using a Mosquito (TTP Labtech) and the plate was incubated at 37° C. for 2 or 24 hours. Assay plate was brought to room temperature then 5 μL per well of Live Cell Substrate (Promega) was added to the plate. Luminescence was measured on an Envision (Perkin Elmer).
# The average DMSO was calculated from 32 wells containing 0.1% DMSO only in columns 12 and 24 of the assay plate. The % of DMSO values were calculated as described below: […]
# The % of DMSO values were plotted as a function of compound concentration and the following 4-parameter fit was applied to derive the DC50 values:
# where top, bottom, and Hill Coefficient are allowed to float. Y is the % of DMSO and X is the compound concentration.
# DC50 data for the Example compounds is provided below in Table 2 (“+” is ≤0.03 μM; “++” is ≥0.03 μM).
# T1 sequence (Q460N5 whole entry): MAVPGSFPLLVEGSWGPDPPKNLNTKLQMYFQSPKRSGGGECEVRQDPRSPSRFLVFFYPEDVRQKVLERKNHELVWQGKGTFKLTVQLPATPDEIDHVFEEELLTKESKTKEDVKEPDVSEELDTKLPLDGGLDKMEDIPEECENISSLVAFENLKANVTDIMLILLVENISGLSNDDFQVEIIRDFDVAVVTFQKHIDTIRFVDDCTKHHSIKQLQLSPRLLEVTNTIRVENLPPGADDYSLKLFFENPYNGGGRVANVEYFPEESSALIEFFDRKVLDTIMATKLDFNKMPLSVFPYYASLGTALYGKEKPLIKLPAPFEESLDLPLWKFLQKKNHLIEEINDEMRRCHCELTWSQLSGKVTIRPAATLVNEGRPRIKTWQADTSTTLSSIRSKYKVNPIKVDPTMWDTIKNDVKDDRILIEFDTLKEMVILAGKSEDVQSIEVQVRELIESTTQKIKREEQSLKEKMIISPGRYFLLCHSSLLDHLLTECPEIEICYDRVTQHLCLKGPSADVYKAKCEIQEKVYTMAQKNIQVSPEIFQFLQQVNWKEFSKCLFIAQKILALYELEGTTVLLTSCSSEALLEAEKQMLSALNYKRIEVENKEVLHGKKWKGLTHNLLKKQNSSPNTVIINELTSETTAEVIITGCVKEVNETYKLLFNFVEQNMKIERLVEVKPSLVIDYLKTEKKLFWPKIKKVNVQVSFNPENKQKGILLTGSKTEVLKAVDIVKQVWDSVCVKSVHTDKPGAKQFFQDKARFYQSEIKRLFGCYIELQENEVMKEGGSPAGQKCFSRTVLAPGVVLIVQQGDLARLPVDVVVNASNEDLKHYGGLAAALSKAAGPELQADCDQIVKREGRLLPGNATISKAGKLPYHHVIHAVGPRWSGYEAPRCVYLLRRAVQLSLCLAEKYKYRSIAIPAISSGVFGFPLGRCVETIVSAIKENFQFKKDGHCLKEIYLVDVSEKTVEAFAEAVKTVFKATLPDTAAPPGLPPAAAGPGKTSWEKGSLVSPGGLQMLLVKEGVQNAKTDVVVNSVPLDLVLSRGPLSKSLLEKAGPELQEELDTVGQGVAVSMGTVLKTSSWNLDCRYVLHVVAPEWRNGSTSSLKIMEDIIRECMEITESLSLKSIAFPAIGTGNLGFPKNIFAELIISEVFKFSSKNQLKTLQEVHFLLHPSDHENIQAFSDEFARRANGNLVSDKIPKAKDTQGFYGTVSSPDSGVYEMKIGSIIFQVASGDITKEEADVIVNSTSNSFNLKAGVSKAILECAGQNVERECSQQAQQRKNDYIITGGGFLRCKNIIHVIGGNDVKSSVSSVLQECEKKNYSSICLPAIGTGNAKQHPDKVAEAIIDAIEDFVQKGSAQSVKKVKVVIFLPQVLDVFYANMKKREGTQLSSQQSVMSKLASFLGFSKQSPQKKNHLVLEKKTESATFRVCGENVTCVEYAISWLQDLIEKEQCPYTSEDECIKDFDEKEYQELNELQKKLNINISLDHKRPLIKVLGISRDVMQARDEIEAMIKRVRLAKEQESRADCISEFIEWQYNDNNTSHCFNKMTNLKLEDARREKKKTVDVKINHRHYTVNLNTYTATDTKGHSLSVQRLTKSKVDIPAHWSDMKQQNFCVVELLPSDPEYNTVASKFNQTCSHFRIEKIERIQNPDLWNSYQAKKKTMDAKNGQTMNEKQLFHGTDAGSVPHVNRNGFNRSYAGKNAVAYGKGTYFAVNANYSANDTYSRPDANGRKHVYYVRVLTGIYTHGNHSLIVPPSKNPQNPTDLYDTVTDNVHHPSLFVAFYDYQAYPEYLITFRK
row,DC50 [µM],SMILES
1,< 0.03,"Cn1nc(N2CCC(=O)NC2=O)c2cccc(N3CCN(CCN4CCC(COc5cc(F)c6c(=O)[nH]c(CSC7CCOCC7)nc6c5)CC4)CC3)c21 [Example 101, 1-(7-(4-(2-(4-(((5-fluoro-4-oxo-2-(((tetrahydro-2H-pyran-4-yl)thio)methyl)-3,4-dihydroquinazolin-7-yl)oxy)methyl)piperidin-1-yl)ethyl)piperazin-1-yl)-1-methyl-1H-indazol-3-yl)dihydropyrimidine-2,4(1H,3H)-dione]"
2,< 0.03,"Cn1nc(C2CCC(=O)NC2=O)c2ccc(N3CCN(CCN4CCC(COc5cc(F)c6c(=O)[nH]c(CSC7CCOCC7)nc6c5)CC4)CC3)cc21 (stereo not drawn) [Example 102, 3-(6-(4-(2-(4-(((5-Fluoro-4-oxo-2-(((tetrahydro-2H-pyran-4-yl)thio)methyl)-3,4-dihydroquinazolin-7-yl)oxy)methyl)piperidin-1-yl)ethyl)piperazin-1-yl)-1-methyl-1H-indazol-3-yl)piperidine-2,6-dione]"
3,< 0.03,"O=C1CCC(N2C(=O)c3cccc4c(N5CCN(CCN6CCC(COc7cc(F)c8c(=O)[nH]c(CSC9CCOCC9)nc8c7)CC6)CC5)ccc2c34)C(=O)N1 (stereo not drawn) [Example 103, 3-(6-(4-(2-(4-(((5-fluoro-4-oxo-2-(((tetrahydro-2H-pyran-4-yl)thio)methyl)-3,4-dihydroquinazolin-7-yl)oxy)methyl)piperidin-1-yl)ethyl)piperazin-1-yl)-2-oxobenzo[cd]indol-1(2H)-yl)piperidine-2,6-dione]"
4,< 0.03,"O=C1CCC(Nc2ccc(F)c(N3CCN(CCN4CCC(COc5cc(F)c6c(=O)[nH]c(CSC7CCOCC7)nc6c5)CC4)CC3)c2)C(=O)N1 (stereo not drawn) [Example 104, 3-((4-fluoro-3-(4-(2-(4-(((5-fluoro-4-oxo-2-(((tetrahydro-2H-pyran-4-yl)thio)methyl)-3,4-dihydroquinazolin-7-yl)oxy)methyl)piperidin-1-yl)ethyl)piperazin-1-yl)phenyl)amino)piperidine-2,6-dione]"
5,< 0.03,"O=C1CCC(Nc2ccc(N3CCN(CCN4CCC(COc5cc(F)c6c(=O)[nH]c(CC7CC7)nc6c5)CC4)CC3)c(F)c2)C(=O)N1 (stereo not drawn) [Example 105, 3-((4-(4-(2-(4-(((2-(cyclopropylmethyl)-5-fluoro-4-oxo-3,4-dihydroquinazolin-7-yl)oxy)methyl)piperidin-1-yl)ethyl)piperazin-1-yl)-3-fluorophenyl)amino)piperidine-2,6-dione formate]"
6,< 0.03,"O=C1CCC(Nc2ccc(N3CCN(CCN4CCC(COc5cc(F)c6c(=O)[nH]c(CC7CCC7)nc6c5)CC4)CC3)c(F)c2)C(=O)N1 (stereo not drawn) [Example 106, 3-((4-(4-(2-(4-(((2-(cyclobutylmethyl)-5-fluoro-4-oxo-3,4-dihydroquinazolin-7-yl)oxy)methyl)piperidin-1-yl)ethyl)piperazin-1-yl)-3-fluorophenyl)amino)piperidine-2,6-dione formate]"
7,< 0.03,"O=C1CCC(Nc2ccc(N3CCN(CCN4CCC(COc5cc(F)c6c(=O)[nH]c(CC7CCCC7)nc6c5)CC4)CC3)c(F)c2)C(=O)N1 (stereo not drawn) [Example 107, 3-((4-(4-(2-(4-(((2-(cyclopentylmethyl)-5-fluoro-4-oxo-3,4-dihydroquinazolin-7-yl)oxy)methyl)piperidin-1-yl)ethyl)piperazin-1-yl)-3-fluorophenyl)amino)piperidine-2,6-dione formate]"
8,< 0.03,"O=C1CCC(Nc2cnc(N3CCN(CCN4CCC(COc5cc(F)c6c(=O)[nH]c(CSC7CCOCC7)nc6c5)CC4)CC3)c(F)c2)C(=O)N1 (stereo not drawn) [Example 108, 3-((5-fluoro-6-(4-(2-(4-(((5-fluoro-4-oxo-2-(((tetrahydro-2H-pyran-4-yl)thio)methyl)-3,4-dihydroquinazolin-7-yl)oxy)methyl)piperidin-1-yl)ethyl)piperazin-1-yl)pyridin-3-yl)amino)piperidine-2,6-dione]"
9,< 0.03,O=C1CCC(Nc2ccc(OC3CC(CN4CCC(COc5cc(F)c6c(=O)[nH]c(CCC7CCOCC7)nc6c5)CC4)C3)cc2)C(=O)N1 (stereo not drawn) [Example 110]
10,< 0.03,O=C1CCC(Nc2ccc(OC3CCC(CN4CCC(COc5cc(F)c6c(=O)[nH]c(CSC7CCOCC7)nc6c5)CC4)CC3)cc2)C(=O)N1 (stereo not drawn) [Example 111]
11,< 0.03,"O=C1CCC(Nc2ccc(N3CCC(N4CCC(COc5cc(F)c6c(=O)[nH]c(CSC7CCOCC7)nc6c5)CC4)CC3)cc2)C(=O)N1 (stereo not drawn) [Example 112, 3-((4-(4-(((5-fluoro-4-oxo-2-(((tetrahydro-2H-pyran-4-yl)thio)methyl)-3,4-dihydroquinazolin-7-yl)oxy)methyl)-[1,4′-bipiperidin]-1′-yl)phenyl)amino)piperidine-2,6-dione]"
12,< 0.03,O=C1CCC(Nc2ccc(N3CCC(N4CCC(COc5cc(F)c6c(=O)[nH]c(CSC7CCOCC7)nc6c5)CC4)CC3)c(F)c2)C(=O)N1 (stereo not drawn) [Example 113]
13,< 0.03,O=C1CCC(Nc2ccc(N3CCC(N4CCC(COc5cc(F)c6c(=O)[nH]c(CCC7CCOCC7)nc6c5)CC4)CC3)cc2)C(=O)N1 (stereo not drawn) [Example 114]
14,< 0.03,O=C1CCC(Nc2ccc(N3CCC(N4CCC(COc5cc(F)c6c(=O)[nH]c(COC7CCOCC7)nc6c5)CC4)CC3)cc2)C(=O)N1 (stereo not drawn) [Example 115]
15,< 0.03,"O=C1CCC(Nc2ccc(N3CCC(N4CC(N5CCC(COc6cc(F)c7c(=O)[nH]c(CSC8CCOCC8)nc7c6)CC5)C4)CC3)c(F)c2)C(=O)N1 (stereo not drawn) [Example 116, 3-((3-fluoro-4-(4-(3-(4-(((5-fluoro-4-oxo-2-(((tetrahydro-2H-pyran-4-yl)thio)methyl)-3,4-dihydroquinazolin-7-yl)oxy)methyl)piperidin-1-yl)azetidin-1-yl)piperidin-1-yl)phenyl)amino)piperidine-2,6-dione]"
16,< 0.03,"O=C1CCC(Nc2ccc(N3CCC(CCN4CCC(COc5cc(F)c6c(=O)[nH]c(CSC7CCOCC7)nc6c5)CC4)CC3)cc2)C(=O)N1 (stereo not drawn) [Example 118, 3-((4-(4-(2-(4-(((5-fluoro-4-oxo-2-(((tetrahydro-2H-pyran-4-yl)thio)methyl)-3,4-dihydroquinazolin-7-yl)oxy)methyl)piperidin-1-yl)ethyl)piperidin-1-yl)phenyl)amino)piperidine-2,6-dione]"
17,< 0.03,O=C1CCC(Nc2ccc(N3CCN(CCN4CCC(COc5cc(F)c6c(=O)[nH]c(CSC7CCOCC7)nc6c5)CC4)CC3)cn2)C(=O)N1 (stereo not drawn) [Example 119]
18,< 0.03,"O=C1CCC(Nc2ccc(OC3CCN(CCN4CCC(COc5cc(F)c6c(=O)[nH]c(CSC7CCOCC7)nc6c5)CC4)CC3)cc2)C(=O)N1 (stereo not drawn) [Example 120, 3-((4-((1-(2-(4-(((5-fluoro-4-oxo-2-(((tetrahydro-2H-pyran-4-yl)thio)methyl)-3,4-dihydroquinazolin-7-yl)oxy)methyl)piperidin-1-yl)ethyl)piperidin-4-yl)oxy)phenyl)amino)piperidine-2,6-dione]"
19,< 0.03,O=C1CCC(Nc2ccc(N3CCC(N4CCN(CCOc5cc(F)c6c(=O)[nH]c(CSC7CCOCC7)nc6c5)CC4)CC3)cc2)C(=O)N1 (stereo not drawn) [Example 125]
20,< 0.03,O=C1CCC(Nc2ccc(N3CCN(C4CCN(CCOc5cc(F)c6c(=O)[nH]c(CSC7CCOCC7)nc6c5)CC4)CC3)c(F)c2)C(=O)N1 (stereo not drawn) [Example 126]
21,< 0.03,"O=C1CCC(Nc2ccc(N3CC(N4CCC(CCOc5cc(F)c6c(=O)[nH]c(CSC7CCOCC7)nc6c5)CC4)C3)cc2)C(=O)N1 (stereo not drawn) [Example 127, 3-((4-(3-(4-(2-((5-fluoro-4-oxo-2-(((tetrahydro-2H-pyran-4-yl)thio)methyl)-3,4-dihydroquinazolin-7-yl)oxy)ethyl)piperidin-1-yl)azetidin-1-yl)phenyl)amino)piperidine-2,6-dione]"
22,< 0.03,O=C1CCC(Nc2ccc(N3CCC4(CC3)CC(N3CCC(COc5cc(F)c6c(=O)[nH]c(CSC7CCOCC7)nc6c5)CC3)C4)cc2)C(=O)N1 (stereo not drawn) [Example 128]
23,< 0.03,"O=C1CCC(Nc2ccc(N3CCN(CCN4CCC(CNc5cc6nc(CSC7CCOCC7)[nH]c(=O)c6c(F)c5F)CC4)CC3)cc2)C(=O)N1 (stereo not drawn) [Example 129, 3-((4-(4-(2-(4-(((5,6-difluoro-4-oxo-2-(((tetrahydro-2H-pyran-4-yl)thio)methyl)-3,4-dihydroquinazolin-7-yl)amino)methyl)piperidin-1-yl)ethyl)piperazin-1-yl)phenyl)amino)piperidine-2,6-dione formate]"

row,SMILES,DC50 [µM]
1,"O=C1CCC(Nc2ccc(N3CCC(N4CCC(COc5cc(F)c6c(=O)[nH]c(CCC7CCOCC7)nc6c5)CC4)CC3)c(F)c2)C(=O)N1 (stereo not drawn) [Example 117, 3-((3-fluoro-4-(4-(((5-fluoro-4-oxo-2-(2-(tetrahydro-2H-pyran-4-yl)ethyl)-3,4-dihydroquinazolin-7-yl)oxy)methyl)-[1,4′-bipiperidin]-11′-yl)phenyl)amino)piperidine-2,6-dione]",< 0.03
